Read-outs that look alike come from different tables or passages of the source. Where no end group is shown, it is not given here. [ ]: non-standard residue; d: D form.
Key:
[1] = system: peripheral blood mononuclear cells from patients with SLE; test: expansion of CD4+ CD25hi T cells in SLE patient cells cultured with peptide for 5 days; format: cell-based, human; details: for expansion of CD4+ CD25hi (Foxp3+) regulatory T cell populations: SLE patient cells in culture, 5 days
Procedure: In these experiments, pCons and other stimulatory (peptides B and D) peptides and non-stimulatory peptides (peptide A) that are wild peptides from human monoclonal antibodies to DNA were incubated with peripheral blood mononuclear cells from patients with SLE.
In FIGS. 6 and 7, we show data on the ability of L-pCons to mature the CD4+ CD25hiFoxp3+ natural regulatory cells in patients with SLE. In these experiments, pCons and other stimulatory (peptides B and D) peptides and non-stimulatory peptides (peptide A) that are wild peptides from human monoclonal antibodies to DNA were incubated with peripheral blood mononuclear cells from patients with SLE. […] Such cells are thought to be regulatory T cells.
Next, we studied the ability of L-pCons to induce Treg in T cells from the peripheral blood of patients with SLE (36 patients, 32 healthy controls). Stimulatory control peptides B and D are wild peptides from human mAb anti-DNA; peptide A is a nonstimulatory negative control (see, e.g. Kaki et al., Lupus 2004; 13:490-500). […] These expanded cells were regulatory (FIG. 8): they suppressed proliferation and IFNg synthesis by autologous CD4+ CD25− cells in culture. Numbers of CD4+ Foxp3+ T cells were also expanded and silencing of Foxp3 by transfection with specific siRNA for Foxp3 abrogated the suppressive capacity of the induced T reg by ½ (3rd panel, FIG. 8). […] Patients who were anti-DNA negative were unlikely to respond to pCons with expansion of Treg (see, e.g. La Cava et al, Lupus. 2008; 17(5):421-5).

[2] = system: BWF1 mice; test: cytokine and Foxp3 mRNA in mesenteric lymph nodes after peptide feeding; format: in vivo; details: mesenteric lymph nodes one week after feeding
Procedure: Cytokine measurement in the supernatant of cultured spleen cells was done with BD OptEIA™ ELISA kits (BD Biosciences and Bio legends Inc., San Diego, Calif.) for IFNγ, IL-2, TGFβ and IL-10. Intracellular mRNA encoding IFNγ, IL-10, Foxp3 and TGFβ was analyzed by real-time RT PCR. GAPDH was used as a house-keeping gene for normalization.
Real-time PCR was analyzed according to art accepted protocols (see, e.g. Hahn et al., Ann NY Acad Sci 2005; 1051:433-41). Briefly, total RNA was isolated with TRIzol (Invitrogen Life Technologies, Carlsbad, Calif.) as per manufacturer's protocol. Reverse transcription used 50 ng of total RNA. The oligonucleotide sequences used for the primers and TaqMan probes are as follows; IFN-γ forward, 5′ TGA GAC AGA AGT TCT GGG CTTCT 3′ (SEQ ID NO: 9); reverse, 5′ CAAGAT GCA GTG TGT AGC GTTCA 3′ (SEQ ID NO: 10): probe, 6FAM TCC TGCGGCCTAGCTCTGAGA TAMRA (SEQ ID NO: 11). IL-10 forward, 5′ CAGCCGGGAAGACAATAACTG 3′ (SEQ ID NO: 12); reverse, 5′ CCGCAGCTCTAGGAGCATGT 3′ (SEQ ID NO: 13); probe 6FAM ACCCACTTCCCAGTCGGCCAGAG TAMRA. TGFβ forward, 5′ AAACGGAAGCGCATCGAA 3′ (SEQ ID NO: 14); reverse, 5′ […] 3′ (SEQ ID NO: 15), probe 6FAM […] TAMRA (SEQ ID NO: 16). Foxp3 forward, 5′[…] 3′ (SEQ ID NO: 17); reverse, 5′ […] 3′ (SEQ ID NO: 18); probe 6FAM […] TAMRA (SEQ ID NO: 19). The amplification primers were at 900 nM and the probe at 200 nM. A passive reference dye (ROX) provided an internal standard for normalization of FAM fluorescence, correcting for fluctuations due to volume changes. For relative quantitation, a standard curve was constructed for each primer and probe set, using total RNA. RNA was isolated from spleen cells of 10-13 week-old naïve or tolerized mice. Spleen cells from 2 to 3 mice in each group were pooled for each experimental group. For some experiments, CD4^+ and CD8^+ cells were isolated by positive selection using micro beads with Miltenyi AutoMACS as described above. A ribosomal RNA control primer and probe set (Applied Biosystems) were used for normalization purposes. […]

[3] = system: BWF1 mice; details: cited from earlier work
[4] = system: BWF1 mice; test: FACS of CD8+ Foxp3+ T cells in mesenteric nodes and spleen after peptide gavage; format: in vivo
Procedure: Lastly, we synthesized the D-form of pCons, for the purpose of administering it orally since D-forms are resistant to acid degradation. […] Specifically, studies have been completed in which BWF1 mice were fed 5 days a week out of every 30 days saline, low dose pCons (25 ug), middle dose (100 ug) or high dose (250 ug) by gavage. Both D and L-forms are being studied. Most of those mice were sacrificed to study characteristics of cells in mesenteric lymph nodes and spleens. Observations from these studies are disclosed in the following paragraphs.
First, we observed that CD8+ T cells that express Foxp3 (known to be inhibitory T cells for SLE) were induced in mesenteric nodes and spleen cells by the highest dose (250 ug) of D-peptide and by the middle dose (100 ug) and high dose of L-peptide. Thus the administration of low/middle dose D-peptide and of low dose L-peptide was not effective. Data were obtained by FACS analysis of total node populations, with percent of CD8+ Foxp3+ cells in untreated mice <1%, compared to 3-6% of total CD8+ cells in the effective doses of peptide. These changes are high enough to be clinically significant according to our earlier data with L-peptide given i.v.

[5] = system: mice; test: induction of Treg and Ti in mice by administered peptide; format: in vivo; details: administered subcutaneously (so in the source)
[6] = high dose i.v. tolerogen once a month, BWF1 females

Row | Sequence | patients showing expansion of CD4+ CD25hi cells to more than the usual 2-3% of peripheral blood MNC ([1]; 5 days in culture) | expansion of CD4+ CD25hi (Foxp3+) regulatory T cell populations [1] | expansion of CD4+ CD25hi (Foxp3+) regulatory T cell populations ([1]; listed as pCons) | mRNA pattern: increase in Foxp3 and TGFb with decrease in IFNg ([2]; high dose 250 ug fed, listed as L-peptide) | mRNA pattern: increase in Foxp3 and TGFb with decrease in IFNg ([2]; middle dose 100 ug fed, listed as L-peptide) | appearance of anti-DNA, anti-phospholipid, and proteinuria [3, 6] | prolongation of survival [3, 6] | prolongs survival ([3]; started after nephritis and anti-DNA antibodies have appeared) | prolongs survival ([3]; started prior to disease onset) | induction of CD8+ T cells that express Foxp3 ([4]; low dose 25 ug by gavage) | induction of CD8+ T cells that express Foxp3 ([4]; middle dose 100 ug by gavage) | mRNA pattern: increase in Foxp3 and TGFb with decrease in IFNg ([2]; high dose 250 ug fed, listed as D-peptide) | induction of Treg and Ti [5]
1 | FIEWNKLRFRQGLEW [L-pCons] | Thirteen of 23 | expand significantly | expanded CD4+ CD25hi populations in some patients | all desired features | all desired features | significant delay | 24 week | 3-4 months | 4-5 months |  |  |  | 
2 | FIEWNKLRFRQGLEW ([dF][dI][dE][dW][dN][dK][dL][dR][dF][dR][dQ]G[dL][dE][dW]) [D-pCons] |  |  |  |  |  |  |  |  |  | not effective | not effective | All desired features | induces Treg and Ti

Source: patent US8492347B2, “Peptide for induction of immune tolerance as treatment for systemic lupus erythematosus” (The Regents of the University of California, priority 2007, dated 2013)
